In patent publication US10364263B2, “Cyclic phosphates and cyclic phosphoramidates for the treatment of neurologic disorders” (Retrophin, Inc., priority 2015, dated 2019):
Like-named read-outs stand apart in the source and are kept apart here.

Key:
[1] = test system: PANK2 silenced human neuroblastoma IMR32 cells (PANK2−/−); test: Coenzyme A assay in PANK2 silenced cells (LC-MS quantification of free CoA); type: cell-based; settings: compound added twice (24 h + 24 h), relative to 0.1% DMSO controls
Summary of the method: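 Free intracellular CoA was measured by positive-mode LC-MS/MS of 20% TFA extracts, taking 2 μl per 10^6 cells as intracellular volume. Cells were IMR32 with stable lentiviral PANK2 knockdown, dosed twice 24 h apart (48 h total, 0.1% DMSO). Output is fold increase over vehicle.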

[2] = Stability in human plasma; type: in vitro ADME; settings: 37° C.
Experimental: Compounds and positive control samples were dissolved in 100% DMSO at 3 mM. To investigate the stability of the test compounds in plasma, samples were made by diluting test compounds into plasma from the stock solutions to obtain a test compound concentration of 3 μM (0.1% DMSO). Before addition of a test compound, 990 μl of plasma were preincubated at 37° C. for 5 min in eppendorf. After addition of a test compound, 70 μl for each time point were transferred to a 96-deepwell plate, previously warmed at 37° C. in a DUBNOFF water bath. Each compound was tested at five time points, in duplicate (10, 20, 30, 40 and 60 min). At each time point, an aliquot of 50 μl was taken and transferred to a new 96-deepwell plate, and the reaction was stopped with 200 μl of 100% acetonitrile containing 0.1% formic acid and the appropriate internal standard. Then samples were centrifuged at 1100×g for 30 min at +4° C. and supernatants were transferred to a new 96-deepwell plate. Samples were evaporated under N2 and reconstituted in H2O/ACN 0.1% Formic Acid (98:2). Analysis was performed without a calibration curve (Acquity UPLC-Waters; SciexAPI4000). Time 0 was obtained by adding acetonitrile before addition of the test compound.

[3] = human, plasma, Diastereoisomer A (upfield shift in 31P NMR), read-out: t1/2, Human Plasma, Diastereoisomer A (converted)
[4] = human, plasma, Diastereoisomer B, read-out: t1/2, Human Plasma, Diastereoisomer B (converted)

half-life at 3 µM [2, 3]	half-life at 3 µM [2, 4]	SMILES	PANK2−/− CoA (Fold Increase): fold increase in Coenzyme A (CoA) levels relative to controls [1]	half-life at 3 µM ([2]; Diastereoisomer A (upfield shift in 31P NMR), read-out: t1/2, Human Plasma, Diastereoisomer A (converted))	t1/2, Human Plasma, Diastereoisomer B ([2]; Diastereoisomer B, 3 μM)
< 0.16 h	< 0.16 h	C[C@H](NP1(=O)OCC(C)(C)[C@H](C(=O)NCCC(=O)OC2Cc3ccccc3C2)O1)C(=O)OCCc1ccccc1 (stereo partly drawn) [1-54, 2,3-dihydro-1H-inden-2-yl 3-((4R)-5,5-dimethyl-2-oxido-2-(((S)-1-oxo-1-phenethoxypropan-2-yl)amino)-1,3,2-dioxaphosphinane-4-carboxamido)propanoate]	1.13 Fold Increase	–	–
> 1 h	–	C[C@H](NP1(=O)OCC(C)(C)[C@H](C(=O)NCCC(=O)OCCN2CCCC2)O1)C(=O)OCCc1ccccc1 (stereo partly drawn) [compound 44, phenethyl ((4R)-5,5-dimethyl-2-oxido-4-((3-oxo-3-(2-(pyrrolidin-1-yl)ethoxy)propyl)carbamoyl)-1,3,2-dioxaphosphinan-2-yl)-L-alaninate]	1.62 Fold Increase	–	–
> 1 h	> 1 h	C[C@H](NP1(=O)OCC(C)(C)[C@H](C(=O)NCCC(=O)OCC2CC2)O1)C(=O)OCCc1ccccc1 (stereo partly drawn) [compound 37, cyclopropylmethyl 3-((4R)-5,5-dimethyl-2-oxido-2-(((S)-1-oxo-1-phenethoxypropan-2-yl)amino)-1,3,2-dioxaphosphinane-4-carboxamido)propanoate]	1.9 Fold Increase	–	–
0.95 h	–	COC(=O)CCNC(=O)[C@@H]1OP(=O)(N[C@@H](C)C(=O)OCCCc2ccccc2)OCC1(C)C (stereo in doubt) [compound 46, methyl 3-((2R,4R)-5,5-dimethyl-2-oxido-2-(((S)-1-oxo-1-(3-phenylpropoxy)propan-2-yl)amino)-1,3,2-dioxaphosphinane-4-carboxamido)propanoate]	2.74 Fold Increase	–	–
> 1 h	–	COC(=O)CCNC(=O)[C@@H]1O[P@](=O)(N[C@H](C(=O)OCCc2ccccc2)C(C)C)OCC1(C)C [compound 45, phenethyl ((2S,4R)-4-((3-methoxy-3-oxopropyl)carbamoyl)-5,5-dimethyl-2-oxido-1,3,2-dioxaphosphinan-2-yl)-L-valinate]	1.3 Fold Increase	–	–
> 1 h	> 1 h	C[C@H](NP1(=O)OCC(C)(C)[C@H](C(=O)NCCC(=O)O[C@@H]2CCOC2)O1)C(=O)OCCc1ccccc1 (stereo partly drawn) [1-55, phenethyl ((4R)-5,5-dimethyl-2-oxido-4-((3-oxo-3-(((R)-tetrahydrofuran-3-yl)oxy)propyl)carbamoyl)-1,3,2-dioxaphosphinan-2-yl)-L-alaninate]	2.09 Fold Increase	–	–
–	–	COC(=O)CCNC(=O)[C@@H]1OP(=O)(N[C@@H](C)C(=O)OC2CCOC2)OCC1(C)C (stereo partly drawn) [compound 34, methyl 3-((4R)-5,5-dimethyl-2-oxido-2-(((2S)-1-oxo-1-((tetrahydrofuran-3-yl)oxy)propan-2-yl)amino)-1,3,2-dioxaphosphinane-4-carboxamido)propanoate]	1.3 Fold Increase	> 1 h	>1 h
> 1 h	> 1 h	COC(=O)CCNC(=O)[C@@H]1OP(=O)(N[C@@H](Cc2cccnc2)C(=O)OCCc2ccccc2)OCC1(C)C (stereo partly drawn) [compound 36, phenethyl (2S)-2-(((4R)-4-((3-methoxy-3-oxopropyl)carbamoyl)-5,5-dimethyl-2-oxido-1,3,2-dioxaphosphinan-2-yl)amino)-3-(pyridin-3-yl)propanoate]	2.44 Fold Increase	–	–
> 1 h	0.89 h	COC(=O)CCNC(=O)[C@@H]1O[P@@](=O)(N[C@@H](C)C(=O)OCCc2ccccn2)OCC1(C)C [compound 35, methyl 3-((2R,4R)-5,5-dimethyl-2-oxido-2-(((S)-1-oxo-1-(2-(pyridin-2-yl)ethoxy)propan-2-yl)amino)-1,3,2-dioxaphosphinane-4-carboxamido)propanoate]	2.23 Fold Increase	–	–
> 1 h	> 1 h	C[C@H](NP1(=O)OCC(C)(C)[C@H](C(=O)NCCC(=O)OCc2ccncc2)O1)C(=O)OCCc1ccccc1 (stereo partly drawn) [compound 38, phenethyl ((4R)-5,5-dimethyl-2-oxido-4-((3-oxo-3-(pyridin-4-ylmethoxy)propyl)carbamoyl)-1,3,2-dioxaphosphinan-2-yl)-L-alaninate]	2.76 Fold Increase	–	–
–	–	COC(=O)CCNC(=O)[C@@H]1O[P@](=O)(Oc2ccc(C(F)(F)F)cc2)OCC1(C)C [2-197, methyl 3-((2R,4R)-5,5-dimethyl-2-oxido-2-(4-(trifluoromethyl)phenoxy)-1,3,2-dioxaphosphinane-4-carboxamido)propanoate]	101.95 Fold Increase	–	–
–	–	COC(=O)CCNC(=O)[C@@H]1OP(=O)(OCOC(=O)N[C@@H](CSC(=O)C(C)(C)C)C(=O)O)OCC1(C)C (stereo partly drawn) [2-180, N-(((((4R)-4-((3-methoxy-3-oxopropyl)carbamoyl)-5,5-dimethyl-2-oxido-1,3,2-dioxaphosphinan-2-yl)oxy)methoxy)carbonyl)-S-pivaloyl-L-cysteine]	26.8 Fold Increase	–	–
–	–	COC(=O)CCNC(=O)[C@@H]1O[P@@](=O)(OCOC(=O)c2cc(C(C)(C)C)nn2C)OCC1(C)C [2-169, (((2S,4R)-4-((3-methoxy-3-oxopropyl)carbamoyl)-5,5-dimethyl-2-oxido-1,3,2-dioxaphosphinan-2-yl)oxy)methyl 3-(tert-butyl)-1-methyl-1H-pyrazole-5-carboxylate]	20.26 Fold Increase	–	–
–	–	COC(=O)CCNC(=O)[C@@H]1OP(=O)(OCOC(=O)[C@H]2COC(=O)N2C(=O)OC(C)(C)C)OCC1(C)C (stereo partly drawn) [2-196, 3-(tert-butyl) 4-((((4R)-4-((3-methoxy-3-oxopropyl)carbamoyl)-5,5-dimethyl-2-oxido-1,3,2-dioxaphosphinan-2-yl)oxy)methyl) (4R)-2-oxooxazolidine-3,4-dicarboxylate]	1.97 Fold Increase	–	–
–	–	COC(=O)CCNC(=O)[C@@H]1OP(=O)(OCOC(=O)c2scnc2C(C)(C)C)OCC1(C)C (stereo partly drawn) [2-173, (((4R)-4-((3-methoxy-3-oxopropyl)carbamoyl)-5,5-dimethyl-2-oxido-1,3,2-dioxaphosphinan-2-yl)oxy)methyl 4-(tert-butyl)thiazole-5-carboxylate]	2.57 Fold Increase	–	–
–	–	COC(=O)CCNC(=O)[C@@H]1O[P@](=O)(N2CCS(=O)(=O)CC2)OCC1(C)C [compound 138, methyl 3-((2S,4R)-2-(1,1-dioxidothiomorpholino)-5,5-dimethyl-2-oxido-1,3,2-dioxaphosphinane-4-carboxamido) propanoate]	1.7 Fold Increase	–	–
–	–	CCOC(=O)[C@H](CC(C)C)NP1(=O)OCC(C)(C)[C@H](C(=O)NCCC(=O)OC)O1 (stereo partly drawn) [compound 8, ethyl ((4R)-4-((3-methoxy-3-oxopropyl)carbamoyl)-5,5-dimethyl-2-oxido-3,3,2-dioxaphosphinan-2-yl)-L-leucinate]	0.69 Fold Increase	–	–
–	–	CCCC(=O)OCOP1(=O)OCC(C)(C)[C@H](C(=O)NCCC(=O)OC)O1 (stereo partly drawn) [Compound No. 66, (((4R)-4-((3-methoxy-3-oxopropyl)carbamoyl)-5,5-dimethyl-2-oxido-1,3,2-dioxaphosphinan-2-yl)oxy)methyl butyrate]	83.72 Fold Increase	–	–
–	–	COC(=O)CCNC(=O)[C@@H]1O[P@@](=O)(OCOC(=O)c2cc(C(C)(C)C)n[nH]2)OCC1(C)C [2-186, (((2S,4R)-4-((3-methoxy-3-oxopropyl)carbamoyl)-5,5-dimethyl-2-oxido-1,3,2-dioxaphosphuian-2-yl)oxy)methyl 3-(tert-butyl)-1H-pyrazole-5-carboxylate]	101.14 Fold Increase	–	–

SMILES	half-life at 3 µM [2, 3]	half-life at 3 µM [2, 4]	PANK2−/− CoA (Fold Increase): fold increase in Coenzyme A (CoA) levels relative to controls [1]	half-life at 3 µM ([2]; Diastereoisomer A (upfield shift in 31P NMR), read-out: t1/2, Human Plasma, Diastereoisomer A (converted))	t1/2, Human Plasma, Diastereoisomer B ([2]; Diastereoisomer B, 3 μM)
CC(C)[C@H](N[P@]1(=O)OCC(C)(C)[C@H](C(=O)NCCC(=O)OC(C)(C)C)O1)C(=O)OCCc1ccccc1 [compound 49, phenethyl ((2S,4R)-4-((3-(tert-butoxy)-3-oxopropyl)carbamoyl)-5,5-dimethyl-2-oxido-1,3,2-dioxaphosphinan-2-yl)-L-valinate]	> 1 h	–	1.09 Fold Increase	–	–
